Patent publication US20070117770A1, “Human ribosomal DNA (rDNA) and ribosomal RNA (rRNA) nucleic acids and uses thereof” (Cylene Pharmaceuticals, Inc., priority 2005, published 2007)

Legend:
Experiment in all cases: Protein kinase inhibition assay
Assay type in all cases: biochemical
[1] = target: IKKβ(h) (Homo sapiens, UniProt O14920); settings: read-out: percent residual activity of IKKβ(h)
Method: (§1) Certain compounds were tested for activity in protein kinase inhibition assays. All substrates were dissolved and diluted to working stocks in de-ionized water, apart from histone H1 (10× working stock in 20 mM MOPS pH 7.0), PDKtide (10× working stock in 50 mM Tris pH 7.0) ATF2 (which is typically stored at a 20× working stock in 50 mM Tris pH 7.5, 150 mM NaCl, 0.1 mM EGTA, 0.03% Brij-35, 50% glycerol, 1 mM benzamidine, 0.2 mM PMSF and 0.1% R-mercaptoethanol), KKLNRTLSFAEPG (SEQ ID NO:203) and RRRLSFAEPG (SEQ ID NO:204) (50 mM HEPES pH 7.4) and GGEEEEYFELVKKKK (SEQ ID NO:205) (20 mM MOPS pH 7.0). All kinases were pre-diluted to a 10× working concentration prior to addition into the assay. The composition of the dilution buffer for each kinase is detailed below.
(§2) In a final reaction volume of 25 μl, IKKβ (h) (5-10 mU) is incubated with 8 mM MOPS pH 7.0, 0.2 mM EDTA, 100 μM peptide, 10 mM MgAcetate and [gamma-33P-ATP] (specific activity approx. 500 cpm/pmol, concentration as required). The reaction is initiated by the addition of the MgATP mix. After incubation for 40 minutes at room temperature, the reaction is stopped by the addition of 5 μl of a 3% phosphoric acid solution. 10 μl of the reaction is then spotted onto a P30 filtermat and washed three times for 5 minutes in 75 mM phosphoric acid and once in methanol prior to drying and scintillation counting.

[2] = target: EphB2(h) (Homo sapiens, UniProt P29323); settings: read-out: percent residual activity of EphB2(h)
Method: as §1
as §2, with “EphB2” for “IKKβ”, “10 mM MnCl2, 0.1 mg/ml poly(Glu, Tyr) 4:1,” for “100 μM peptide,”, “Filtermat A” for “P30 filtermat”

[3] = target: EphA4(h) (Homo sapiens, UniProt P54764); settings: read-out: percent residual activity of EphA4(h)
Sequence of EphA4(h) (P54764 20-986): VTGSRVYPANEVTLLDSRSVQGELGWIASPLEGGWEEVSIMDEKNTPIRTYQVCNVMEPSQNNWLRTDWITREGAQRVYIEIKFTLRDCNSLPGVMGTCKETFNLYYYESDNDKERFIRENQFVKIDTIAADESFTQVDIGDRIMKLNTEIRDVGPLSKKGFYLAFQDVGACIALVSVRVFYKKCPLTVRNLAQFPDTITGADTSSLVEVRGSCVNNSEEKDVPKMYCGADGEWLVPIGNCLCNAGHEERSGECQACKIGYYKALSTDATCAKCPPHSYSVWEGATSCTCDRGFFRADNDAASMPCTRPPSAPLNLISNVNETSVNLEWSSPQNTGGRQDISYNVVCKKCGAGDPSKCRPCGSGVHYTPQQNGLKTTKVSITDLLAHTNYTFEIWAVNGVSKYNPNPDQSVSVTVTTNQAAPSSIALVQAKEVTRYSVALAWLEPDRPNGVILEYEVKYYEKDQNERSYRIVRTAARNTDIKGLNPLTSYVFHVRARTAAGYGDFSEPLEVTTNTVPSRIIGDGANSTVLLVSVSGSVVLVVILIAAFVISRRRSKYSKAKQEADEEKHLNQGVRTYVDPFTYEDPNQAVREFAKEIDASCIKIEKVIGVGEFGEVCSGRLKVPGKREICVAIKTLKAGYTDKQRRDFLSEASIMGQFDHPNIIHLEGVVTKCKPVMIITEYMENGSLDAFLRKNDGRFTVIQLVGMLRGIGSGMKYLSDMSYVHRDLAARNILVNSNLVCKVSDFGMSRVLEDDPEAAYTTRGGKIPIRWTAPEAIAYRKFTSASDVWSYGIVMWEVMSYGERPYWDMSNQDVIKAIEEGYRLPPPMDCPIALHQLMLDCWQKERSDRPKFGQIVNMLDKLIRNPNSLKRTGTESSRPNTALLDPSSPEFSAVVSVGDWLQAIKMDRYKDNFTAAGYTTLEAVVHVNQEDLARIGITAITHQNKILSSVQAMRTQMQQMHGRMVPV
Method: as §1
as §2, with “EphA4” for “IKKβ”, “10 mM MnCl2, 0.1 mg/ml poly(Glu, Tyr) 4:1,” for “100 μM peptide,”, “[y-33P-ATP]” for “[gamma-33P-ATP]”, “Filtermat A” for “P30 filtermat”

[4] = target: Flt3(h) (Homo sapiens, UniProt P36888); settings: read-out: percent residual activity of Flt3(h)
Sequence of Flt3(h) (P36888 27-993): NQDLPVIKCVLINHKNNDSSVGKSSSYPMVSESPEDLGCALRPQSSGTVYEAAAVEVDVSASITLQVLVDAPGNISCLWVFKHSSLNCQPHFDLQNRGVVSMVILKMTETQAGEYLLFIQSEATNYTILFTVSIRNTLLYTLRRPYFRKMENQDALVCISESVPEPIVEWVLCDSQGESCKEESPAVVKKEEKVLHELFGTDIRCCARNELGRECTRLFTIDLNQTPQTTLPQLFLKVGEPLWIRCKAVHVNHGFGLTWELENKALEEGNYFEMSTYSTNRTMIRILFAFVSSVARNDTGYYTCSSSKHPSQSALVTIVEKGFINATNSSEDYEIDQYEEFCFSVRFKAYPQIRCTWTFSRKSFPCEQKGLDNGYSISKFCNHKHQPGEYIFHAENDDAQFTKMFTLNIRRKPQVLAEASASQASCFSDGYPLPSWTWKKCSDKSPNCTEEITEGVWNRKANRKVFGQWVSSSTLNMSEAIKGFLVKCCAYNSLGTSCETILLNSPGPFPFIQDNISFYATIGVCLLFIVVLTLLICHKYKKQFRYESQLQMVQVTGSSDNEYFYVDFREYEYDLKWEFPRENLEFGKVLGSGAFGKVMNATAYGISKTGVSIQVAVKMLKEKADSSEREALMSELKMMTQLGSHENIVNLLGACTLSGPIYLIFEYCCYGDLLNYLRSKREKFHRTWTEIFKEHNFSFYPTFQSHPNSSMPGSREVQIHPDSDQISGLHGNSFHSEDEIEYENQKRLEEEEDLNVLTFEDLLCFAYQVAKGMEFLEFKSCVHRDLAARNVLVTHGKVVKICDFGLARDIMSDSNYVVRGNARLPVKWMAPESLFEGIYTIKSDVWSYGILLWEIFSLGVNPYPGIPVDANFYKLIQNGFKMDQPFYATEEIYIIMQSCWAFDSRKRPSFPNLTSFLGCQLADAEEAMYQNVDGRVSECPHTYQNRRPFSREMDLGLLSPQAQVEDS
Method: as §1
as §2, with “Flt3” for “IKKβ”, “50” for “100”, “EAIYAAPFAKKK (SEQ ID NO:206),” for “peptide,”

[5] = target: CDK5/p25(h) (Homo sapiens, UniProt Q00535); settings: read-out: percent residual activity of CDK5/p25(h)
Sequence of CDK5/p25(h) (Q00535 whole entry): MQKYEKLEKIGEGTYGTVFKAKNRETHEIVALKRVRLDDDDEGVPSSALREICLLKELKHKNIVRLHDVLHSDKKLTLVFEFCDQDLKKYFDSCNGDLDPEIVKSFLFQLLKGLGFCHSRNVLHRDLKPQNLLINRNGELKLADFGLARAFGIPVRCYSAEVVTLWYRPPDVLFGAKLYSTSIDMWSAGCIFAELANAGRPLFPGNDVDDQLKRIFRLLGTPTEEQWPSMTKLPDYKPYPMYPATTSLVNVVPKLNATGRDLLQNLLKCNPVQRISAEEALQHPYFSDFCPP
Sequence of CDK5/p25(h) (Q15078 99-307 partner limits assumed): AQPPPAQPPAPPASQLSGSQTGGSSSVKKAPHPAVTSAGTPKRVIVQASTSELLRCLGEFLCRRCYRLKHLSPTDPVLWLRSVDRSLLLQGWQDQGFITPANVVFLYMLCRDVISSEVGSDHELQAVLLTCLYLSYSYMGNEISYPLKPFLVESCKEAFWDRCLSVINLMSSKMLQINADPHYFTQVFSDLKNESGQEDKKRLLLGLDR
Method: as §1
as §2, with “CDK5/p25” for “IKKβ”, “0.1 mg/ml histone H1,” for “100 μM peptide,”, “[y-33P-ATP]” for “[gamma-33P-ATP]”

[6] = target: Abl(m) (Mus musculus, UniProt P00520); settings: read-out: percent residual activity of Abl(m)
Sequence of Abl(m) (P00520 whole entry): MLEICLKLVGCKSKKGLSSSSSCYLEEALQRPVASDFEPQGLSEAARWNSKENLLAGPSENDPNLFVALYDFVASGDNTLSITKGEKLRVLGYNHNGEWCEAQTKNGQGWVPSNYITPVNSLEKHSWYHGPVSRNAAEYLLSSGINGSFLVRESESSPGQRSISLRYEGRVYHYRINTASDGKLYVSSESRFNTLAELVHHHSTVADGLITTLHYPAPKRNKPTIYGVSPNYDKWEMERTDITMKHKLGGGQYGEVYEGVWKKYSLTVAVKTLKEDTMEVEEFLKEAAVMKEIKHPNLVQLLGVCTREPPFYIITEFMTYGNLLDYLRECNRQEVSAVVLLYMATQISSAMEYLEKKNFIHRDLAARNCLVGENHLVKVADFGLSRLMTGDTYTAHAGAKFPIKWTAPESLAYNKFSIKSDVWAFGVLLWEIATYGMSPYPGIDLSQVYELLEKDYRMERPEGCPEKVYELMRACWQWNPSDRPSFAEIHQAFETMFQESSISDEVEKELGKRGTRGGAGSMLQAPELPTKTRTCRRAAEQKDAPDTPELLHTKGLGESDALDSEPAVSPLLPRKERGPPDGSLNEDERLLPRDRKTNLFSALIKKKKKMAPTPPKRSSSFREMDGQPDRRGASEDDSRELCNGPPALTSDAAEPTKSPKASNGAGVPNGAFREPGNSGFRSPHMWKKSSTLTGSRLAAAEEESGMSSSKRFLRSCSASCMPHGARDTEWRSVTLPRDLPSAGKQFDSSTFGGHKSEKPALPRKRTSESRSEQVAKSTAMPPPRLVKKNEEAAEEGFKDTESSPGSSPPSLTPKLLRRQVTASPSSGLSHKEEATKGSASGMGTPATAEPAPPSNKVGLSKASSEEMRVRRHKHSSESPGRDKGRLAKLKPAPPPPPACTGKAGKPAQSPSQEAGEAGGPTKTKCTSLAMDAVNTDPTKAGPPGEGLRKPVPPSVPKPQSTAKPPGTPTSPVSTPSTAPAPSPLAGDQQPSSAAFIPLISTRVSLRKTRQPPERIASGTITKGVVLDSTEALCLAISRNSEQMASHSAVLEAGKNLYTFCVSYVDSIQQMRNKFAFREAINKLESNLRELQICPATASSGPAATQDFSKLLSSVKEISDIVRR
Method: as §1
as §2, with “Abl (m)” for “IKKβ (h)”, “50” for “100”, “EAIYAAPFAKKK (SEQ ID NO:206),” for “peptide,”

Sequence of IKKβ(h) (O14920 whole entry): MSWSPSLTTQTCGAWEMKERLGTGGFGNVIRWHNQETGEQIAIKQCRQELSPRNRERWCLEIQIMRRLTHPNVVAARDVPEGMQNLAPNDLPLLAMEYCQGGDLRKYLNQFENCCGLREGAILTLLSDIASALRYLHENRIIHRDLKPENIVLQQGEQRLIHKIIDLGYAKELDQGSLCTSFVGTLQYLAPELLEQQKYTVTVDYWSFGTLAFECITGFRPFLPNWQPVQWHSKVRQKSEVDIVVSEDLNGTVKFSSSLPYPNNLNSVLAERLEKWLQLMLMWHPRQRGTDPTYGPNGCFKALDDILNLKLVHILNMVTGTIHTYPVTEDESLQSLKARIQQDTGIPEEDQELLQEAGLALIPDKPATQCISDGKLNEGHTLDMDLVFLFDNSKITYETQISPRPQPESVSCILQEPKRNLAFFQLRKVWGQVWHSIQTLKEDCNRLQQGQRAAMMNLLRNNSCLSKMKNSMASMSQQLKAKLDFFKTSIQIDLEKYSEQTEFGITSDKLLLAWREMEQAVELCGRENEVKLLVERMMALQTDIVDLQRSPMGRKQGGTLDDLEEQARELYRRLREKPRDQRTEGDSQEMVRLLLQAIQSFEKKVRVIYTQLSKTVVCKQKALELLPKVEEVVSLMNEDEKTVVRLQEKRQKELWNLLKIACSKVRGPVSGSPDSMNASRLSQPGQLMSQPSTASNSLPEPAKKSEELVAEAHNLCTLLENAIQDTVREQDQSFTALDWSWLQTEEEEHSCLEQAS

CN1CCCC1CCNC(=O)c1cn2c3c(c(N4CCC(c5cnccn5)C4)c(F)cc3c1=O)Oc1cc3ccccc3cc1-2 (stereo not drawn) [Compound A-1]
remaining activity at 2.5 µM [1]: 56% | remaining activity at 2.5 µM [2]: 96% | remaining activity at 2.5 µM [3]: 107% | remaining activity at 2.5 µM [4]: 32% | remaining activity at 2.5 µM [5]: 77% | remaining activity at 2.5 µM [6]: 9%

CC(=O)N1CCN(c2ccc3c(=O)c(C(=O)NCCN4CCCC4)c4n(C)c5ccccc5n4c3n2)CC1 [Compound B-1]
remaining activity at 2.5 µM [1]: 105% | remaining activity at 2.5 µM [2]: 106% | remaining activity at 2.5 µM [3]: 134% | remaining activity at 2.5 µM [4]: 100% | remaining activity at 2.5 µM [5]: 99% | remaining activity at 2.5 µM [6]: 104%
